Measurements reported in US9921225B2, “Phenyl glyoxal probes” (The Scripps Research Institute, priority 2012, dated 2018).
Values joined by “and” are separate entries in the source; they are usually repeats but may differ in a detail not shown here. Equal values may be shown once.

Experiments:
autodeiminated PAD4 [1] = target: T1, autodeiminated PAD4 (Homo sapiens, UniProt Q9UM07); test: Rh-PG limit of detection, SDS-PAGE and fluorescent imaging; conditions: Example 1; 20% TCA, 0.1 mM Rh-PG, 37° C., 3 h; LOD defined as three times the noise
Protocol: The sensitivity of the probe was analyzed next (FIGS. 5A, 5B). Autodeiminated PAD4, prepared as described above, was diluted into 50 mM HEPES pH 8.0 to final concentrations of 1.6 μM, 0.16 μM, 16 nM, 1.6 nM, and 0.16 nM. To one set of samples was added 0.1 mM Rh-PG, and to a second set, 20% TCA and 0.1 mM Rh-PG. The samples were then incubated at 37° C. for 3 h. To TCA precipitate autodeiminated PAD4, the acidic solutions were cooled on ice for 30 min and then centrifuged at 14,000 rpm for 15 min at 4° C. The supernatant was removed and samples were washed with cold acetone and dried at 100° C. for 5 min. Proteins were resuspended in 25 μL of 50 mM HEPES. Both basic and acidic samples were then boiled with 6×SDS loading dye and various amounts of protein (i.e., 1000, 100, 10, 1, and 0.1 ng) loaded onto a 12% SDS-PAGE gel. Gel electrophoresis was performed at 170 V for 60 min and the gels analyzed on a Typhoon Imager (Ex. 532 nm; Em. 580 nm) (FIGS. 5A, 5B). […]
Rh-PG Limit of Detection: Citrullinated H3 and autodeiminated PAD4, prepared as described above, were diluted into 50 mM HEPES pH 7.6 to final concentrations of (2.2 μM, 0.22 μM, 22 nM, 2.2 nM, and 0.22 nM H3) and (0.16 μM, 16 nM, 1.6 nM, 0.16 nM, and 0.016 nM PAD4). […] Gel electrophoresis was performed at 170 V for 50 min and the gels analyzed on a Typhoon Imager (Ex. 532 nm; Em. 580 nm).

PAD3 = target: T2, PAD3 (Homo sapiens, UniProt Q9ULW8); test: Kinetic characterization of ApoA1 as a PAD substrate using Rh-PG; type: biochemical; conditions: recombinant huApoA1, Rh-PG readout
T2 sequence (Q9ULW8 1-664): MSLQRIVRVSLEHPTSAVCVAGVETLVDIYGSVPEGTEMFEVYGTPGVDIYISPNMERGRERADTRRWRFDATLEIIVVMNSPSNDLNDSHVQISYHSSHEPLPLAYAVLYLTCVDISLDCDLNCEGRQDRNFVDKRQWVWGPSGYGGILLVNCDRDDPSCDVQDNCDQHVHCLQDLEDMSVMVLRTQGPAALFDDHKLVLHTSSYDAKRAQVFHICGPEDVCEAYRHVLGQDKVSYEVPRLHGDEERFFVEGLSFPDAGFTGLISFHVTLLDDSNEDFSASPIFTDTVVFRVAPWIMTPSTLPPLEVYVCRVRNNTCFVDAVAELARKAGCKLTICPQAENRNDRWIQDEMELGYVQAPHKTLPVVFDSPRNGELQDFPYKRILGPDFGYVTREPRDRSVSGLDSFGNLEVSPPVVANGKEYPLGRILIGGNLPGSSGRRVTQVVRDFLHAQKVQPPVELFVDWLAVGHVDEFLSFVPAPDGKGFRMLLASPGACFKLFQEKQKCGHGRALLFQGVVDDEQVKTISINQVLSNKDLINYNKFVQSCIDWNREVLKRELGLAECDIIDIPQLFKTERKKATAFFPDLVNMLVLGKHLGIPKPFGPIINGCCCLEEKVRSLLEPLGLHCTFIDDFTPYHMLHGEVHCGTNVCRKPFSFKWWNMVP
Protocol: (§1) To verify that ApoA1 is the modified 25 kDa protein in the UC samples, anti-ApoA1 Western blotting of Biotin-PG pulldown samples was performed (FIG. 24A). […] To test human ApoA1 as a PAD substrate, recombinant huApoA1 was first treated ±PADs 1-4 and then analyzed with the Rh-PG probe (FIG. 24B). […] PADs 2, 3, and 4 also modified ApoA1, albeit to a lesser extent. To further evaluate citrullination of ApoA1, the steady state kinetic parameters were determined using Rh-PG.

PAD2 = PAD2 (Homo sapiens, UniProt Q9Y2J8); test: as above; type: biochemical; conditions: recombinant huApoA1, Rh-PG readout
Protocol: as §1

PAD4 = PAD4 (Homo sapiens, UniProt Q9UM07); test: Steady-state kinetic assay of protein citrullination using Rh-PG; type: biochemical; conditions: recombinant huApoA1, Rh-PG readout
[2] = test system: serum protein citrullination; test: Rh-PG analysis of murine ulcerative colitis serum samples; type: in vivo, mouse; conditions: serum of DSS mice treated with Cl-amidine
Protocol: Rh-PG Analysis of Murine Ulcerative Colitis Serum Samples: Serum samples Cl-amidine efficacy in a mouse model of ulcerative colitis were obtained and analyzed by the Rh-PG method. Briefly, the protein concentration of serum samples was first obtained using a standard Lowry assay. A sample (2 mg/mL; 30 μL) of each serum sample (i.e., 14 total; 7 DSS; 7 DSS+Cl-amidine) was prepared in 50 mM HEPES and treated with 20% TCA and 0.1 mM Rh-PG for 30 min at 37° C. Samples were then quenched with citrulline, cooled, centrifuged, washed, and dried. After resuspending in 50 mM HEPES, samples were separated by SDS-PAGE (12%; 170 V; 50 min) and imaged on a Typhoon Imager (Ex. 532 nm; Em. 580 nm). Images were analyzed using ImageQuant 5.2 and correlation coefficients were determined using Microsoft Excel. These experiments were run in duplicate on different days. Subsequent statistical analysis was done using STATISTICA, utilizing two-tailed, independent student's t-tests to determine significance (i.e., P-value) between diseased and Cl-amidine treated samples. Correlation coefficients were calculated in Microsoft Excel, utilizing a table of critical values of Pearson's r with a degree of freedom value of 12 (n−2) to determine the significance (i.e., P-value) of the correlation between the fluorescence of a particular protein and a disease score.

[3] = test system: DSS induced ulcerative colitis; conditions: cited from earlier work
autodeiminated PAD4 [4] = target: T1, autodeiminated PAD4; test: Biotin-PG limit of detection, streptavidin-HRP blot; conditions: Example 1; 20% TCA, 0.1 mM Biotin-PG, 37° C., 3 h
Protocol: Biotin-PG Pulldown and Labeling—It was next set out to determine the utility of the biotin-tagged PG probe, Biotin-PG (FIG. 2), as a tool for labeling, isolating, and enriching citrullinated proteins. As with the Rh-PG probe, the LOD of this probe was first determined with respect to autodeiminated PAD4. For these studies, autodeiminated PAD4, prepared as described above, was diluted into 50 mM HEPES pH 8.0 to final concentrations of 1.6 μM, 0.16 μM, 16 nM, 1.6 nM, and 0.16 nM. These samples were then incubated at 37° C. for 3 h with 20% TCA and 0.1 mM Biotin-PG. Solutions were quenched, cooled on ice for 30 min, and centrifuged at 14,000 rpm for 15 min at 4° C. The supernatant was removed and samples were washed with cold acetone and dried at 100° C. for 5 min. Proteins were resuspended in 25 μL of 50 mM HEPES and boiled with 6×SDS loading dye and various amounts of protein (i.e., 1,000, 100, 10, 1, and 0.1 ng) loaded onto a 12% SDS-PAGE gel. Gel electrophoresis was performed at 200 V for 50 min and proteins were subsequently electrotransferred to nitrocellulose (tris-glycine buffer; 80 V; 70 min) and the membrane blocked with 5% BSA in PBS for 1 h at rt. After washing 2× with PBS (10 min), the blot was treated with streptavidin-HRP (1:20,000) in 5% BSA in PBS for 1 h at rt. […]

[5] = group average, Group 8 WT, 2% DSS + Cl-Amidine @ 75 mg/kg
[6] = individual mice, Group 8 WT, 2% DSS + Cl-Amidine @ 75 mg/kg

T1 sequence (Q9UM07 whole entry): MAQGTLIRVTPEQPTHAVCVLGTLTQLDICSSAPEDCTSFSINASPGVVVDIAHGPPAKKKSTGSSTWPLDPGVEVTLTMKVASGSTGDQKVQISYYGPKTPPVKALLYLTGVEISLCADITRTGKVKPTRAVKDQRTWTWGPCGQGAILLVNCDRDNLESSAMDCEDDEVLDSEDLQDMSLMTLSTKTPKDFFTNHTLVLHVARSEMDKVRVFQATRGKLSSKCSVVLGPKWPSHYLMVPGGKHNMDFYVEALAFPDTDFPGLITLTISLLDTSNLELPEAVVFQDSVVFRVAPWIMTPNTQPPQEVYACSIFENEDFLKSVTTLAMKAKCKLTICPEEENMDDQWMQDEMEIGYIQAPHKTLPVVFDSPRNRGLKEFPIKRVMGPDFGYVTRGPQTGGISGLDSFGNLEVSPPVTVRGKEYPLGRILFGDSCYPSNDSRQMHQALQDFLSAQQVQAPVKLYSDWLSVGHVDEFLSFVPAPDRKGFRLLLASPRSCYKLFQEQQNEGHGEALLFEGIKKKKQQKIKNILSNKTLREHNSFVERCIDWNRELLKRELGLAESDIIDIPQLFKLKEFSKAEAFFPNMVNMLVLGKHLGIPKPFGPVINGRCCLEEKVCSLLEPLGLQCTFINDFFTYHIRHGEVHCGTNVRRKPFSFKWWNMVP
PAD2, sequence (Q9Y2J8 whole entry, species assumed): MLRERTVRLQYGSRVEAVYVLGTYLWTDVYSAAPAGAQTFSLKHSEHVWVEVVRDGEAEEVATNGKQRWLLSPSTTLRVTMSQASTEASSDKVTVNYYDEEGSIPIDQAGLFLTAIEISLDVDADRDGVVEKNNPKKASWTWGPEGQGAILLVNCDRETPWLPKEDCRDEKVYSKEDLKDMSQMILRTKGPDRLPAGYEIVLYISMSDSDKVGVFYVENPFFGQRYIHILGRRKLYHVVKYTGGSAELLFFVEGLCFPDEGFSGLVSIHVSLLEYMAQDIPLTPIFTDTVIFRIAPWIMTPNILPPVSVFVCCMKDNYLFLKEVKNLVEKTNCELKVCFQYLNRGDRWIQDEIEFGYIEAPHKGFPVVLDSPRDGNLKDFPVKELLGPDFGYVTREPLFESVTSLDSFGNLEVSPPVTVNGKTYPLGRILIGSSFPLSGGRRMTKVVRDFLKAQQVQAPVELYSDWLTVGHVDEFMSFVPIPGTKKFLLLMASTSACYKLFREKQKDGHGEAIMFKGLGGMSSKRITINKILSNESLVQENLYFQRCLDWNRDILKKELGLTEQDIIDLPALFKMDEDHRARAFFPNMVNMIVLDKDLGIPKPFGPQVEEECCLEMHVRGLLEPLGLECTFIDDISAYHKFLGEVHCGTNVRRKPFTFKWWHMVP
PAD4, sequence (Q9UM07 whole entry, species assumed): as the sequence (Q9UM07 whole entry) above

For CC(C(=O)Nc1cccc(C(=O)C=O)c1)n1cc(CNC(=O)c2ccc3c(c2)C2(OC3=O)c3ccc(N(C)C)cc3Oc3cc(N(C)C)ccc32)nn1 (stereo not shown) [Rh-PG, N-(3-Glyoxyl)phenylamino)propionyl)-1H-1,2,3-triazol-4-yl)methyl-5(6)-carboxamidotetramethyl rhodamine hydrate], the “limit of detection (LOD) of Rh-PG probe labeling of autodeiminated PAD4” value (autodeiminated PAD4 [1]) was 1 ng.

With “ApoA1: apolipoprotein-A1, a key component of High Density Lipoprotein; recombinant huApoA1 tested as PAD substrate” the “substrate quality for PAD3” value (PAD3) was “modest substrate”, the “substrate quality for PAD2” value (PAD2) was “modest substrate” and the “substrate quality for PAD4” value (PAD4) was “modest substrate”.

For NC(=O)[C@H](CCCN=C(N)CCl)NC(=O)c1ccccc1 [Cl-amidine], the “effect on global citrullination (whole lane)” value [2] is given as “significantly decreases global citrullination”, the disease severity ([3]; DSS mouse model of ulcerative colitis, previous study (Chumanevich 2011)) is given as “reduces disease severity” and the “Colon Length, Average” value [3, 5] is given as 8.1 cm. The “Inflam. Score, Average” value [3, 5] was 14.6, the “Lym, Average” value [3, 5] was 8.2 m/mm^3 and the “WBC, Average” value [3, 5] was 13.7 m/mm^3. The Weight (end), Average [3, 5] was 23.3 g, the “Weight Diff., Average” value [3, 5] was 0.7 g and the “Colon Length” value [3, 6] was 7.6 cm (2×) and 8.1 cm and 8.2 cm and 8.6 cm and 8 cm and 8.4 cm. The “Inflam. Score” value [3, 6] was 14 (2×) and 24 and 12 (2×) and 10 and 16, the Lym [3, 6] was 5.68 m/mm^3 and 3.87 m/mm^3 and 11.35 m/mm^3 and 9.4 m/mm^3 and 6.87 m/mm^3 and 9.35 m/mm^3 and 10.83 m/mm^3 and the WBC [3, 6] was 9.75 m/mm^3 and 9.08 m/mm^3 and 18.14 m/mm^3 and 15.12 m/mm^3 and 11.46 m/mm^3 and 15.91 m/mm^3 and 16.41 m/mm^3. The “Weight Diff.” value [3, 6] was 0.8 g (2×) and 0.15 g and 1.3 g and 0.5 g and 0.7 g and 0.3 g and the “Weight (end)” value ([3]; individual mice, Group 8 WT, 2% DSS + Cl-Amidine @ 75 mg/kg, in g) was 23.4 and 22.05 and 22.7 and 24.1 and 25 and 22.5 and 23.6.

With O=CC(=O)c1cccc(NC(=O)CCn2cc(CCCC(=O)NCCNC(=O)CCCC[C@@H]3SC[C@@H]4NC(=O)N[C@@H]43)nn2)c1 [Biotin-PG] the “limit of detection of Biotin-PG probe, autodeiminated PAD4” value (autodeiminated PAD4 [4]) was 100 ng.
